Data reported in US20070111199A1, “Compounds and method of identifying, synthesizing, optimizing and profiling protein modulators” (priority 2005, published 2007).

Experiments:
[1] = biological target: T1, Ba/F3 cells overexpressing the p210^Bcr-Abl-T315I theramutein (Homo sapiens, UniProt P00519, T315I, cells depend on it); test: phenoresponse-based cellular assay (cell count/viability), Ba/F3 T315I test cells; set-up: species or system murine; settings: for GI50: read-out: T315I (IC50 activity category, growth inhibition by 50%), Ba/F3 T315I cell line
T1 construct: fused on or other part: P11274 (Breakpoint cluster region protein)

[2] = system: P210 T315I mutant kinase domain (120 Kd); test: cell-free purified protein kinase autophosphorylation assay, T315I kinase domain; assay type: biochemical, human; settings: 20 μM cell-free, FIGS. 17 and 18
Procedure: Each of the compounds was also tested in a standard cell free protein kinase autophosphorylation assay at a concentration of 20 μM as shown in FIG. 18.

Structure (SMILES)	GI50 [1]	further results
Cc1ccc(/C=N/Nc2ncc(F)c(N3CCOCC3)n2)cc1	> 10000 nM	–
O=C(Nc1cccc(C(F)(F)F)c1)c1cccc(/C=N/Nc2ncc(F)c(N3CCOCC3)n2)n1 [Example C2-122]	–	relative potency, cell-free assay vs phenoresponse-based cellular assay [2]: more potent in the cell-free assay than in the phenoresponse-based cellular system; relative potency in the phenoresponse-based assay ([1]; FIG. 17): less potent than several of the other compounds tested
Fc1cnc(N/N=C/c2ccc(Nc3cccc(C(F)(F)F)c3)cn2)nc1-c1cncc(-c2ccccc2)c1	< 1000 nM	–
CC(C(=O)O)c1ccc(Nc2ccc(/C=N/Nc3ncc(F)c(N4CCOCC4)n3)nc2)cc1 (stereo not shown)	> 10000 nM	–
Fc1cnc(N/N=C/c2ccccc2)nc1N1CCOCC1	> 10000 nM	–
Oc1ccc(Br)cc1/C=N/Nc1ncc(F)c(N2CCOCC2)n1	< 1000 nM	–
Cc1cc(Nc2cccc(C(F)(F)F)c2)ccc1/C=N/Nc1ncc(F)c(N2CCOCC2)n1	> 10000 nM	–
O=C(NNc1ncc(F)c(N2CCOCC2)n1)c1ccc(Nc2cccc(C(F)(F)F)c2)cn1	< 1000 nM	–
Fc1cnc(N/N=C/c2ccccn2)nc1N1CCOCC1	< 1000 nM	–
Oc1cccc(Nc2cccc(Nc3ccc(/C=N/Nc4ncc(F)c(N5CCOCC5)n4)nc3)c2)c1	< 1000 nM	–
O=C(Nc1cccc(C(F)(F)F)c1)c1cccc(/C=N/Nc2ncc(F)c(N3CCOCC3)n2)n1 [drawing 209]	> 10000 nM	–
Cc1cc(Nc2ccc(/C=N/Nc3ncc(F)c(N4CCOCC4)n3)nc2)cc(N2CCNCC2)c1	< 1000 nM	–
Oc1ccccc1/C=N/Nc1ncc(F)c(N2CCOCC2)n1	< 10000 nM	–
Fc1cnc(N/N=C/c2ccc(Nc3ccc(-c4ccccn4)c(Cl)c3)cn2)nc1N1CCOCC1	< 1000 nM	–
O=C(Nc1cccc(C(F)(F)F)c1)c1ccc(/C=N/Nc2ncc(F)c(N3CCOCC3)n2)nc1	< 1000 nM	–
Cc1cccc(Cl)c1NC(=O)C/C=N/Nc1ncc(F)c(N2CCOCC2)n1	> 10000 nM	–
Fc1cnc(N/N=C/c2ccc(-c3cccc(C(F)(F)F)c3)cn2)nc1N1CCOCC1	< 1000 nM	–
Oc1c(Cl)cc(Br)cc1/C=N\Nc1ncc(F)c(N2CCOCC2)n1 [Example C2]	–	concentration showing the largest specificity gap within the dose-response series ([1]; T315I vs control Ba/F3 cells, FIG. 1): 500 nM
O=C(Nc1cccc(C(F)(F)F)c1)c1cc(Cl)c(O)c(/C=N\Nc2ncc(F)c(N3CCOCC3)n2)c1	< 1000 nM	–
Fc1cnc(N/N=C/c2ccc(Nc3cccc(-n4ccnc4)c3)cn2)nc1N1CCOCC1	< 1000 nM	–
Fc1cnc(N/N=C/c2ccc(Nc3cccc(C(F)(F)F)c3)cn2)nc1-c1cncc(C2CC2)c1	< 10000 nM	–
CN(C)c1cc(O)cc(Nc2ccc(/C=N/Nc3ncc(F)c(N4CCOCC4)n3)nc2)c1	< 1000 nM	–
Fc1cnc(N/N=C/c2ccc(Nc3ccc(N4CCOCC4)cc3)cn2)nc1N1CCOCC1	< 1000 nM	–
Cc1ccccc1/C=N/Nc1ncc(F)c(N2CCOCC2)n1	> 10000 nM	–
